Test results taken from ChEMBL document CHEMBL5120880, “Peptidomimetics: An Overview of Recent Medicinal Chemistry Efforts toward the Discovery of Novel Small Molecule Inhibitors” (J Med Chem, 2022).
In brackets after ≈: the same amount, converted by molar mass. Peptide text beside a SMILES is read from it.

Key:
Escherichia coli [1] = experiment: Antimicrobial activity against Escherichia coli KCTC 1682 assessed as minimal inhibitory concentration incubated for 18 hrs; assay type: functional
Pseudomonas aeruginosa = experiment: Antimicrobial activity against Pseudomonas aeruginosa KCTC 1637 assessed as minimal inhibitory concentration incubated for 18 hrs; assay type: functional
Staphylococcus aureus [2] = experiment: Antimicrobial activity against Staphylococcus aureus KCTC 1621 assessed as minimal inhibitory concentration incubated for 18 hrs; assay type: functional
[3] = test system: Staphylococcus epidermidis; experiment: Antimicrobial activity against Staphylococcus epidermidis KCTC 1917 assessed as minimal inhibitory concentration incubated for 18 hrs; assay type: functional
Staphylococcus aureus [4] = experiment: Antibacterial activity against Staphylococcus aureus assessed as minimal inhibitory concentration incubated for 24 hrs; assay type: functional
Salmonella enterica = experiment: Antibacterial activity against Salmonella enterica assessed as minimal inhibitory concentration incubated for 24 hrs; assay type: functional
Escherichia coli [5] = experiment: Antibacterial activity against Escherichia coli assessed as minimal inhibitory concentration incubated for 24 hrs; assay type: functional
Staphylococcus aureus [6] = experiment: Antibacterial activity against Staphylococcus aureus MRSA assessed as minimal inhibitory concentration incubated for 24 hrs; assay type: functional
Bacillus subtilis [7] = experiment: Antibacterial activity against Bacillus subtilis assessed as minimal inhibitory concentration incubated for 72 hrs; assay type: functional
Murine hepatitis virus = experiment: microbe, parasite or virus in culture; settings: Murine coronavirus
[8] = test system: Feline infectious peritonitis virus; experiment: microbe, parasite or virus in culture; settings: Alphacoronavirus 1
[9] = test system: Middle East respiratory syndrome-related coronavirus; experiment: Antiviral activity against MERS-CoV by cell based assay; assay type: functional, organism-based
SARS-CoV = experiment: microbe, parasite or virus in culture; settings: Severe acute respiratory syndrome-related coronavirus
[10] = test system: Middle East respiratory syndrome-related coronavirus; experiment: microbe, parasite or virus in culture
SARS-CoV-2 = experiment: microbe, parasite or virus in culture; settings: Severe acute respiratory syndrome coronavirus 2
[11] = Inhibition of Acinetobacter baumannii […] assessed as measuring NADH consumption rate
Acinetobacter baumannii = experiment: Antibacterial activity against Acinetobacter baumannii ATCC BAA1605 assessed as minimal inhibitory concentration; assay type: functional
Escherichia coli [12] = experiment: Antibacterial activity against Escherichia coli AG100 assessed as minimal inhibitory concentration; assay type: functional
Staphylococcus aureus [13] = experiment: Antibacterial activity against Staphylococcus aureus ATCC 29213 assessed as minimal inhibitory concentration; assay type: functional
Escherichia coli [14] = experiment: Antibacterial activity against Escherichia coli BW25113 assessed as minimal inhibitory concentration by microdilution assay; assay type: functional
Bacillus subtilis [15] = experiment: Antibacterial activity against Bacillus subtilis DSM10 assessed as minimal inhibitory concentration by microdilution assay; assay type: functional
Salmonella typhimurium = experiment: Antibacterial activity against Salmonella typhimurium TA100 assessed as minimal inhibitory concentration by microdilution assay; assay type: functional, Salmonella enterica subsp. enterica serovar Typhimurium; settings: Salmonella enterica
Mycolicibacterium phlei = experiment: Antibacterial activity against Mycobacterium phlei DSM750 assessed as minimal inhibitory concentration by microdilution assay; assay type: functional

SMILES	MIC (Escherichia coli [1]) [µg/mL]	MIC (Pseudomonas aeruginosa) [µg/mL]	MIC (Staphylococcus aureus [2]) [µg/mL]	MIC [3] [µg/mL]	MIC (Staphylococcus aureus [4]) [µg/mL]	MIC (Salmonella enterica) [µg/mL]	MIC (Escherichia coli [5]) [µg/mL]	MIC (Staphylococcus aureus [6]) [µg/mL]	MIC (Bacillus subtilis [7]) [µg/mL]	other results
CC(=O)NCCNc1nc(NCC(N)=O)nc(N(CCCN)CCCN)n1	128 (≈ 335 µM)	128 (≈ 335 µM)	> 128	> 128	–	–	–	–	–	–
C#Cc1cccc(NC(=O)[C@@H](N)CC(C)C)c1	–	–	–	–	10.6 (≈ 46 µM)	15.6 (≈ 67.7 µM)	10.6 (≈ 46 µM)	31.2 (≈ 135 µM)	31.2 (≈ 135 µM)	–
CC(C)C[C@H](NC(=O)OC1CCCCC1)C(=O)N[C@@H](C[C@H]1CCNC1=O)C(O)S(=O)(=O)O (stereo partly drawn)	–	–	–	–	–	–	–	–	–	EC50 (Murine hepatitis virus): 80 nM; EC50 [8]: 70 nM; EC50 [9]: 80 nM; IC50 (SARS-CoV): 3800 nM; IC50 [10]: 150 nM; IC50 (SARS-CoV-2): 3500 nM
CC(=O)NCCNc1nc(NCC(N)=O)nc(N(Cc2ccccc2)Cc2ccccc2)n1	> 128	> 128	> 128	> 128	–	–	–	–	–	–
CCCCCCCCCCCCNC(=O)[C@@H](N)c1ccccc1	–	–	–	–	7.8 (≈ 24.5 µM)	3.9 (≈ 12.2 µM)	2.5 (≈ 7.85 µM)	15.6 (≈ 49 µM)	15.6 (≈ 49 µM)	–
CCCCCCCCCCCCNC(=O)[C@@H](N)CC(C)C	–	–	–	–	3.3 (≈ 11.1 µM)	4.17 (≈ 14 µM)	2.5 (≈ 8.37 µM)	6.25 (≈ 20.9 µM)	10 (≈ 33.5 µM)	–
Cc1oc2c(N)cccc2c1CN(C)C(=O)/C=C/c1cnc2c(c1)N[C@H](C)[C@H](N)C(=O)N2	–	–	–	–	–	–	–	–	–	IC50 [11]: < 10 nM; MIC (Acinetobacter baumannii): ≤ 4 µg/mL; MIC (Escherichia coli [12]): ≤ 4 µg/mL; MIC (Staphylococcus aureus [13]): ≤ 4 µg/mL
CCCCCCNC(=O)[C@@H](N)Cc1ccccc1	–	–	–	–	624 (≈ 2510 µM)	156 (≈ 628 µM)	156 (≈ 628 µM)	312 (≈ 1260 µM)	156 (≈ 628 µM)	–
COc1c(CCc2ccc(NC(=O)[C@H](CC#N)NC(=O)c3ccc(NC(=O)/C(C)=C/c4ccc(O)cc4)cc3)cc2)ccc(C(=O)Nc2ccc(C(=O)O)c(O)c2OC)c1O	–	–	–	–	–	–	–	–	–	MIC (Escherichia coli [14]): 0.25 µg/mL (≈ 0.302 µM); MIC (Bacillus subtilis [15]): 0.063 µg/mL (≈ 0.0761 µM); MIC (Salmonella typhimurium): 0.25 µg/mL (≈ 0.302 µM); MIC (Mycolicibacterium phlei): 1 µg/mL (≈ 1.21 µM)
CC(C)C[C@H](NC(=O)OC1CCCCC1)C(=O)N[C@H](C=O)C[C@H]1CCNC1=O	–	–	–	–	–	–	–	–	–	EC50 (Murine hepatitis virus): 120 nM; EC50 [8]: 90 nM; IC50 (SARS-CoV): 3900 nM; IC50 [10]: 350 nM; IC50 (SARS-CoV-2): 3700 nM
COc1c(C#Cc2ccc(NC(=O)[C@H](CC#N)NC(=O)c3ccc(NC(=O)/C(C)=C/c4ccc(O)cc4)cc3)cc2)ccc(C(=O)Nc2ccc(C(=O)O)c(O)c2OC)c1O	–	–	–	–	–	–	–	–	–	MIC (Escherichia coli [14]): < 0.063 µg/mL; MIC (Bacillus subtilis [15]): 0.063 µg/mL (≈ 0.0765 µM); MIC (Salmonella typhimurium): ≤ 0.016 µg/mL; MIC (Mycolicibacterium phlei): 0.5 µg/mL (≈ 0.607 µM)
CCCCCCCCCCCCNC(=O)[C@@H](N)Cc1ccccc1	–	–	–	–	2.5 (≈ 7.52 µM)	5 (≈ 15 µM)	5 (≈ 15 µM)	16.6 (≈ 49.9 µM)	10 (≈ 30.1 µM)	–
Cc1c(CN(C)C(=O)/C=C/c2cnc3c(c2)N[C@H](C)[C@H](N)C(=O)N3)oc2ccccc12	–	–	–	–	–	–	–	–	–	IC50 [11]: < 10 nM; MIC (Acinetobacter baumannii): ≤ 4 µg/mL; MIC (Escherichia coli [12]): ≤ 4 µg/mL; MIC (Staphylococcus aureus [13]): ≤ 4 µg/mL
C#Cc1cccc(NC(=O)[C@@H](N)C(C)CC)c1 (stereo partly drawn)	–	–	–	–	31.2 (≈ 135 µM)	15.6 (≈ 67.7 µM)	15.6 (≈ 67.7 µM)	62.4 (≈ 271 µM)	–	–
CCCCNC(=O)[C@@H](N)Cc1ccccc1	–	–	–	–	1250 (≈ 5670 µM)	416 (≈ 1890 µM)	–	624 (≈ 2830 µM)	416 (≈ 1890 µM)	–
COc1c(NC(=O)c2ccc(NC(=O)c3ccc(NC(=O)[C@H](Cc4nn[nH]n4)NC(=O)c4ccc(NC(=O)/C(C)=C/c5ccc(O)cc5)cc4)cc3)c(OC)c2O)ccc(C(=O)O)c1O	–	–	–	–	–	–	–	–	–	MIC (Escherichia coli [14]): 0.063 µg/mL (≈ 0.0711 µM); MIC (Bacillus subtilis [15]): 0.25 µg/mL (≈ 0.282 µM); MIC (Salmonella typhimurium): 0.063 µg/mL (≈ 0.0711 µM); MIC (Mycolicibacterium phlei): 2 µg/mL (≈ 2.26 µM)
CC(=O)N[C@@H](CCCCN)C(=O)N[C@@H](Cc1c[nH]c2ccccc12)C(=O)N[C@@H](CCCCN)C(=O)N[C@@H](Cc1c[nH]c2ccccc12)C(N)=O (Ac-KWKW-NH2)	> 128	> 128	> 128	> 128	–	–	–	–	–	–
CC(=O)N[C@@H](CCCCN)C(=O)N[C@@H](Cc1c[nH]c2ccccc12)C(=O)N[C@@H](CCCCN)C(N)=O (Ac-Lys-Trp-Lys-NH2)	64 (≈ 128 µM)	128 (≈ 255 µM)	> 128	> 128	–	–	–	–	–	–
CC(=O)N[C@@H](CCCCN)C(=O)N[C@@H](Cc1c[nH]c2ccccc12)C(N)=O (Ac-Lys-Trp-NH2)	128 (≈ 343 µM)	128 (≈ 343 µM)	> 128	> 128	–	–	–	–	–	–
CC(=O)N[C@@H](Cc1c[nH]c2ccccc12)C(=O)N[C@@H](CCCCN)C(=O)N[C@@H](Cc1c[nH]c2ccccc12)C(N)=O (Ac-Trp-Lys-Trp-NH2)	> 128	> 128	> 128	> 128	–	–	–	–	–	–
